Data reported in patent US9283242B2, “Uses of dihydro bases” (priority 2013, dated 2016).
Entries after “also recorded” stand apart in the source; their conditions may differ.

Experiments:
[1] = Variable temperature 1H NMR, tautomerism in DMF-d7; assay type: physicochemical; details: DMF-d7, 20 to −60° C.
Procedure: At 20° C., exchangeable protons on the base moiety are observed at 7.58 ppm and 4.14 ppm (FIG. 10). At −60° C., exchangeable protons on the base moiety are observed at 8.70 ppm, 8.08 ppm, and 4.68 ppm (FIG. 11). Protons with a chemical shift of 8.70, 8.08, and 7.58 ppm likely correspond to enolic, amido, or imino protons, while protons with a chemical shift of 4.68 and 4.14 ppm likely correspond to amino protons. The expected chemical shifts for enolic, amido, and imino protons are relatively close, and thus these species cannot be assigned at this stage. […] Only the existence of multiple tautomeric species would explain the presence of three exchangeable protons resonances. […] Based on their chemical structures, the keto-amino tautomer will pair with guanine and the keto-imino/enol-imino tautomers can pair with adenine.
All NMR experiments were performed on Varian 500 MHz NMR spectrometers. The deuterated solvent DMF-d7 was from Cambridge Isotope Laboratories, Andover, Mass., USA. 5-Aza-5,6-dihydro-2′-deoxycytidine (KP1212) nucleoside was from Berry & Associates Inc., Dexter, Mich., USA. The NMR sample was prepared by dissolving 10 mg of KP1212 nucleoside in 1.0 ml DMF-d7 (final concentration ˜44 mM). ^1H NMR spectra were reported in parts per million (ppm) and were referenced to the signals for DMF-d7 (8.03 ppm). ^13C NMR spectra were referenced to the signals for DMF-d7 (163.15 ppm).
FIG. 14A depicts the structures of all five possible tautomers (1 to 5) of KP1212, among which the three active protons on the nucleobase shift among the 02, N3, N4 and N5 positions. […] Before assigning the three active protons on the nucleobase moiety, all non-exchangeable protons in KP1212 and the two hydroxyl protons on the 3′ and 5′ positions were identified by carrying out 1D (^1H and ^13C) and 2D (COSY, HSQC, and HMBC) NMR experiments. The NMR signals of the three active protons in the base portion of KP1212 were studied at different temperatures. […] When the temperature was decreased to −50° C., the three broad peaks resolved into six distinct proton resonances (FIG. 14B, denoted as peaks i-vi), which could be assigned to imino (designated as e and n in FIGS. 14A to 14C), amido (designated as g and m), enolic (designated as c and d) or amino (designated as a, b, f, h, i, j, k, l, and o) protons.
At −50° C. six distinct proton resonances (FIG. 14B, i to vi) were observed, attributable to protons bound either to nitrogen or to oxygen atom (for only the base portion of the KP1212 molecule). Integration of the six broad peaks permitted estimation of the relative ratios of the five tautomeric species that exist in solution (FIG. 14A).
The NMR data also allowed the determination of the relative ratios of the tautomeric species present in the DMF solution at −50° C. (FIGS. 14B and 14C). Several peaks in the NMR spectrum partially overlapped (e.g., iv and v), so the raw data were reconstructed using a least squares fit algorithm (FIG. 16). The reconstructed peaks from the simulation were integrated, yielding an estimate of the relative amounts of each of the proton resonances in the spectrum. […] 2) Based on the peak assignments from part 1), a system of linear equations was set up using the relative amounts of tautomers as unknown variables (FIG. 14D). Each NMR peak provided a linear equation whereby the peak area should be equal to the sum of all tautomers (as relative amounts) containing protons that contribute to that peak. The solutions of these equations yielded the relative ratios of the tautomeric species present in DMF at −50° C. (FIG. 14D).

[2] = system: HK82 (AlkB−) E. coli cells; assay type: cell-based
[3] = system: HK82SOS; experiment: CRAB lesion bypass assay, HK82SOS cells; assay type: cell-based, E. coli; details: percentage relative to unmodified control genome
Excerpt: (§1) All E. coli strains used in this work contain the F′ episome, which enables infection by M13 phage. GW5100 strain was used for large scale preparation of M13 phage DNA, SCS 110 (JM110, end Al) was used for amplification of progeny phage post-electroporation, and NR9050 was the strain of choice for double agar plating with X-GAL for blue-clear detection of plaques. The E. coli strains used to replicate lesion-containing phage were HK81 (as AB1157, but nalA) and HK82 (as AB1157, but nalA alkB22; AlkB-deficient).
Lesion-containing genomes were mixed with the competitor genome (80:20 molar ratio) and electroporated in triplicate into 100 μl competent cells using a 2 mm-gap cuvette and a BTX electroporator set to 2.5 kV and 125 a Typical pulse lengths were 4.9 msec. The cells were immediately transferred to 10 ml LB and an aliquot was immediately plated using the agar overlay method to verify that a minimum of 10^5 independent initial electroporation events occurred in 10 ml of culture. Incubation for 6 h at 37° C. with aeration generated the progeny phage, which were then reamplified in SCS 110 cells (10 μl overnight culture and 100 μl of the 6 h supernatant in 10 ml LB) to dilute out the residual genomic DNA used for electroporation. Single-stranded M13 progeny phage DNA was isolated from 1.4 ml of supernatant using a Q1Aprep Spin M13 Kit with final DNA suspension in 100 μl elution buffer. CRAB forward and reverse primers were used to amplify the region of interest from 15 μl per Q1Aprep elution sample in a total volume of 25 μl containing 50 pmol of each primer, 1×Pfu Turbo buffer, 1.25 U Pfu Turbo DNA polymerase and […] of each dNTP. The PCR program used 30 cycles of 67° C. (1 min) annealing and 72° C. (1 min) extensions. […] The gels were visualized on a phosphorimager (Typhoon 7000, GE Healthcare Life Sciences); the band intensities were quantified using IMAGEJ software (National Institutes of Health). Lesion bypass was calculated as the percentage ratio of the intensity of the 18-mer band (lesion signal) to the intensity of the 21-mer band (competitor signal). […]

[4] = system: HK81 (AlkB+) E. coli cells; assay type: cell-based
Procedure: (A) A 16mer oligonucleotide containing KP1212 (SEQ ID NO: 1) (or controls) at a specific site was chemically synthesized and ligated into the genome of an M13 bacteriophage. (B) The KP1212-containing M13 genomes were replicated within E. coli cells. Progeny were analyzed to characterize the amount and the type of nucleic acid base placed opposite the lesion during replication. The relative reduction in lesion vs. non-lesion competitor progeny formation was used as an estimate of the extent to which KP1212 and m3C inhibited DNA replication. (C) The KP1212-containing M13 genomes were used as templates for in vitro polymerase extension assays, carried out at 72° C., using the high-fidelity DNA polymerase PfuTurbo. (D) Bypass efficiency (CRAB assay) of KP1212, m3C, C in HK81 (AlkB^+) and HK82 (AlkB^−) E. coli cells. m3C and undamaged C were used as controls. Genomes were made and normalized to one another before being combined with a competitor genome. Each mixture was transformed into the corresponding cell strain in triplicate, and bypass efficiency was calculated by using the undamaged C genome as 100% bypass, with error bars representing one standard deviation. (E) Mutagenesis (REAP assay) of KP1212, m3C, and C in HK82 (AlkB^−) E. coli cells. m3C, undamaged C, and an approximately equimolar mixture of genomes carrying unmodified G/A/T/C bases at the site of inquiry (denoted as GATC) were used as controls. Genomes containing the lesions of interest were transfected into E. coli in triplicate.
as §1

[5] = system: HK82 (AlkB−) E. coli cells; assay type: cell-based; remark: listed apart in the source
[6] = system: HK82-SOS; experiment: REAP mutagenesis assay, HK82-SOS cells; assay type: cell-based, E. coli; details: (b) HK82-SOS
Excerpt: as §1
(§2) Lesion-containing genomes were mixed with the competitor genome (80:20 molar ratio) and electroporated in triplicate into 100 μl competent cells using a 2 mm-gap cuvette and a BTX electroporator set to 2.5 kV and 125 a Typical pulse lengths were 4.9 msec. The cells were immediately transferred to 10 ml LB and an aliquot was immediately plated using the agar overlay method to verify that a minimum of 10^5 independent initial electroporation events occurred in 10 ml of culture. Incubation for 6 h at 37° C. with aeration generated the progeny phage, which were then reamplified in SCS 110 cells (10 μl overnight culture and 100 μl of the 6 h supernatant in 10 ml LB) to dilute out the residual genomic DNA used for electroporation. Single-stranded M13 progeny phage DNA was isolated from 1.4 ml of supernatant using a Q1Aprep Spin M13 Kit with final DNA suspension in 100 μl elution buffer. CRAB forward and reverse primers were used to amplify the region of interest from 15 μl per Q1Aprep elution sample in a total volume of 25 μl containing 50 pmol of each primer, 1×Pfu Turbo buffer, 1.25 U Pfu Turbo DNA polymerase and […] of each dNTP. The PCR program used 30 cycles of 67° C. (1 min) annealing and 72° C. (1 min) extensions. After purification using QIAQUICK PCR purification columns, 4 μl of the PCR product were treated with BbsI (1.5 U) and SAP (0.3 U) in a total volume of 6 μl by incubating at 37° C. for 4 h. After phosphatase inactivation, (80° C. for 5 min), the 5′ ends were then radiolabeled using [γ-^32P]-ATP (1.66 pmol, 10 μCi/μl, 6000 Ci/mmol), cold ATP (16 pmol) and 5 U of OPTIKINASE at 37° C. for 30 min. Following the kinase inactivation at 65° C. for 20 min, the labeled product was then trimmed by HaeIII (10 U in a final volume of 10 μl) at 37° C. for 2 h, and diluted 1:1 in formamide loading dye. PAGE separation on a 20% denaturing gel, run for about 3.5 h at 550 V, until the xylene cyanol dye migrated 10.5 cm, yielded two bands for each sample: an 18-mer originating from the lesion-containing genome and a 21-mer originating from the competitor genome. The gels were visualized on a phosphorimager (Typhoon 7000, GE Healthcare Life Sciences); the band intensities were quantified using IMAGEJ software (National Institutes of Health). Lesion bypass was calculated as the percentage ratio of the intensity of the 18-mer band (lesion signal) to the intensity of the 21-mer band (competitor signal).
(§3) The REAP assay methodology is identical to the CRAB assay except for the PCR primers, which amplified only the progeny DNA originating from the lesion-carrying genomes. Following electrophoresis, the 18-mer bands were excised from the gel, crushed and extracted with 200 μl water. After desalting with SEPHADEX G-50 Fine resin spin columns, the samples were lyophilized to dryness, resuspended in 5 μl containing 1 μg P1 Nuclease in 30 mM sodium acetate (pH 5.3) and 10 mM zinc chloride, and incubated at 50° C. for 1 h. One μl of each sample was then spotted onto PEI-TLC plates and separated using 200 ml of a saturated solution of (NH4)2HPO4 adjusted to pH 5.8. After 24 h of development, the TLC plates were air-dried and quantified using phosphorimagery. […]

[7] = system: HK81 (AlkB+) E. coli cells; experiment: REAP mutagenesis assay, HK81 cells; assay type: cell-based
Excerpt: as §1, §2, §3

Compound	tautomerism by Variable Temperature NMR [1]	replication block / toxicity to replication ([2]; E. coli (FIG. 18D), for m3C cells that lack AlkB)	Polymerase bypass efficiency, Avg. ([2]; HK82, percentage relative to unmodified control genome, triplicate)	Polymerase bypass efficiency, Avg. [3]	Polymerase bypass efficiency, Avg. ([4]; HK81, percentage relative to unmodified control genome)	toxicity to replication ([4]; cells that expressed the repair enzyme AlkB)	Mutagenicity, Average % A ([5]; (a) HK82)	Mutagenicity, Average % C ([5]; (a) HK82)	Mutagenicity, Average % G ([5]; (a) HK82)	Mutagenicity, Average % T ([5]; (a) HK82)	base pairing / mutagenicity (in words) ([5]; FIGS. 18C, 18E, m3C in repair deficient cells)	Mutagenicity, Average % A [6]	Mutagenicity, Average % C [6]	Mutagenicity, Average % G [6]	Mutagenicity, Average % T [6]	Mutagenicity, Average % C [7]	Mutagenicity, Average % A ([7]; (c) HK81)	Mutagenicity, Average % G ([7]; (c) HK81)	Mutagenicity, Average % T ([7]; (c) HK81)
NC1=NC(=O)N(C2CC(O)C(CO)O2)CC1 (centres unmarked) [DHdC]	shows multiple tautomerism; also recorded: multiple tautomers																		
Cn1c(N)ccnc1=O [m3C, 3-methylcytosine]		very toxic to replication	14%	45%	113%	toxicity was abolished	30.6%	13.2%	1.3%	54.9%	mispair with both A and T	33.6%	5.7%	3.2%	57.5%	100.0%	0.0%	0.0%	0.0%
Nc1ncn([C@H]2C[C@H](O)[C@@H](CO)O2)c(=O)n1 [5-Aza-dC, 5-aza-2′-deoxycytidine]	does not show multiple tautomerism; also recorded: single tautomerism																		
